Measured values reported in patent US20090176839A1, “FORMULATIONS OF 3-(6-(1-(2,2-DIFLUOROBENZO[D][1,3]DIOXOL-5-YL) CYCLOPROPANECARBOXAMIDO)-3-METHYLPYRIDIN-2-YL)BENZOIC ACID” (priority 2007, published 2009).
Several values for one entry are separate records, joined by “and”; a condition that tells them apart may be missing. Equal values may be shown once.

Key:
Solubility (statement) = type: physicochemical; conditions: water
[1] = Single oral pharmacokinetics of the HCl salt in suspension in fed and fasted male rats; type: in vivo, male Sprague Dawley rats; conditions: 30 mg/kg; for AUC0-INF: HCl salt suspension; for Clast / F / Tmax / t1/2 / tlast: HCl salt
Procedure: (§1) Non-validated research grade assays were used for these analyses. All pharmacokinetic studies were conducted using fed animals unless otherwise specified.
The tmax following oral administration of the HCl salt was 3.7 hours under fed and 3.3 hours under fasted conditions, which was similar to the tmax of 3.0 to 4.7 hours following oral administration of Compound 1 under fed conditions.

[2] = Stability of 6 mg/mL aqueous methylcellulose-polysorbate 80 suspension (HPLC, XRPD, NMR); type: physicochemical; conditions: 0.5% methylcellulose/0.5% polysorbate 80; HCl salt quickly converted to Compound 1 at T(0)
Procedure: Methylcellulose (0.5 g) was combined with 99.0 g of purified water in a beaker and stirred in a 60-70° C. water bath for 30′-1 hr. The solution was stirred in a 0° C. ice/water bath for another 30′ or until clear. Polysorbate 80 (0.5 g) was added and stirring at room temperature followed for 30′-1 hr or until a clear solution was obtained.
The desired amount of 0.5% methylcellulose and 0.5% polysorbate 80 stock solution for making a 6 mg/mL based on free base (6.48 mg/mL based on HCl salt) was transferred into the vial and sonicated for 20 minutes with alternate stirring for 1-2 minutes. The solution was homogenized for approximately 1-2 minutes.
As with 0.5% methylcellulose formulation prepared previously, the HCl salt was quickly converted to Compound 1 in Form I at T(0) resulting in a crystalline free form suspension as shown by XRPD (FIG. 10) and confirmed by ^1H NMR analysis (FIGS. 11-13). Additionally, the solid form in suspension at T(0) was recovered an subjected to HPLC analysis: […]

[3] = Single oral pharmacokinetics of the HCl salt in suspension in male dogs; type: in vivo, male beagle dogs; conditions: for AUC0-INF / Cmax: mean (SD)
Procedure: as §1
At nominal dose levels of 5 to 200 mg/kg in 0.5% polysorbate 80/0.5% methylcellulose/water, exposure was high and relatively dose proportional to 200 mg/kg (Table 5). […] Bioavailability ranged from 24% to 49% at all dose levels studied and in both suspension formulations.

[4] = Oral pharmacokinetics of Compound 1 and HCl salt in suspension in male dogs at 200 mg/kg
[5] = 0.5% polysorbate 80/0.5% MC/Water, 5 mg/kg
[6] = 0.5% polysorbate 80/0.5% MC/Water, 25 mg/kg
[7] = 0.5% polysorbate 80/0.5% MC/Water, 50 mg/kg
[8] = 0.5% polysorbate 80/0.5% MC/Water, 100 mg/kg
[9] = 0.5% polysorbate 80/0.5% MC/Water, 200 mg/kg

Cc1ccc(NC(=O)C2(c3ccc4c(c3)OC(F)(F)O4)CC2)nc1-c1cccc(C(=O)O)c1.Cl [HCl salt, 3-(6-(1-(2,2-difluorobenzo[d][1,3]dioxol-5-yl)cyclopropanecarboxamido)-3-methylpyridin-2-yl)benzoic acid.HCl]
solubility in water (Solubility (statement)): sparingly soluble
AUC0-INF ([1]; Fasted): 383 µg·h/mL
AUC0-INF ([1]; Fed): 340 µg·h/mL
Clast ([1]; Fasted): 60 ng/mL
F ([1]; Fasted): >100%
Tmax ([1]; Fasted): 3.3 h and 3.33 h
t1/2 ([1]; Fasted): 5.36 h
tlast ([1]; Fasted): 48 h
Clast ([1]; Fed): 240 ng/mL
F ([1]; Fed): >100%
Tmax ([1]; Fed): 3.7 h and 3.67 h
t1/2 ([1]; Fed): 6.07 h
tlast ([1]; Fed): 48 h
physical stability of suspension [2]: not physically stable
F ([3]; 0.5% MC/Water, 1 mg/kg): 35%
T1/2 ([3]; 0.5% MC/Water, 1 mg/kg): 6.0 h
Tmax ([3]; 0.5% MC/Water, 1 mg/kg): 0.83 h
AUC0-INF ([3]; 0.5% MC/Water, 1 mg/kg): 2.2 (0.5) hr · μg/mL
Cmax ([3]; 0.5% MC/Water, 1 mg/kg): 0.37 (0.2) μg/mL
F ([3]; 0.5% MC/Water, 3 mg/kg): 49%
T1/2 ([3]; 0.5% MC/Water, 3 mg/kg): 5.3 h
Tmax ([3]; 0.5% MC/Water, 3 mg/kg): 1.7 h
AUC0-INF ([3]; 0.5% MC/Water, 3 mg/kg): 9.3 (4.8) hr · μg/mL
Cmax ([3]; 0.5% MC/Water, 3 mg/kg): 1.1 (0.5) μg/mL
F ([3]; 0.5% MC/Water, 10 mg/kg): 40%
T1/2 ([3]; 0.5% MC/Water, 10 mg/kg): 8.8 h
Tmax ([3]; 0.5% MC/Water, 10 mg/kg): 1.0 h
AUC0-INF ([3]; 0.5% MC/Water, 10 mg/kg): 28.4 (12.8) hr · μg/mL
Cmax ([3]; 0.5% MC/Water, 10 mg/kg): 8.9 (7.2) μg/mL
F [3, 5]: 24%
T1/2 [3, 5]: 7.0 h
Tmax [3, 5]: 1.0 h
AUC0-INF [3, 5]: 11.0 (3.6) hr · μg/mL
Cmax [3, 5]: 3.0 (0.5) μg/mL
F [3, 6]: 41%
T1/2 [3, 6]: 5.9 h
Tmax [3, 6]: 2.0 h
AUC0-INF [3, 6]: 56.8 (22.1) hr · μg/mL
Cmax [3, 6]: 18.0 (3.7) μg/mL
F [3, 7]: 27%
T1/2 [3, 7]: 4.9 h
Tmax [3, 7]: 1.7 h
AUC0-INF [3, 7]: 63.4 (22.9) hr · μg/mL
Cmax [3, 7]: 21.0 (7.1) μg/mL
F [3, 8]: 46%
T1/2 [3, 8]: 5.4 h
Tmax [3, 8]: 1.7 h
AUC0-INF [3, 8]: 268 (123) hr · μg/mL
Cmax [3, 8]: 54.4 (6.8) μg/mL
F [3, 9]: 30%
T1/2 [3, 9]: 5.9 h
Tmax [3, 9]: 2.3 h
AUC0-INF [3, 9]: 523 (46.8) hr · μg/mL
Cmax [3, 9]: 101 (30.2) μg/mL
Clast ([4]; HCl salt): 128 ng/mL
F ([4]; HCl salt): 53%
Tmax ([4]; HCl salt): 2.5 h
t1/2 ([4]; HCl salt): 5.5 h
tlast ([4]; HCl salt): 48 h
AUC0-INF ([4]; HCl salt suspension): 755 µg·h/mL
